From paper PMC12797238 (ACS Infectious Diseases, 2025) come the findings set out here.

Some results are limits rather than exact numbers.

The subject of experiment [1] is Toxoplasma tachyzoites mitochondrion. Description: Toxoplasma mitochondrial membrane potential (MitoTracker, cytometry and microscopy). It is filed as cell-based, Toxoplasma gondii. The following applies: 24 h at 3× EC50; for Mitotracker staining of T. gondii, microscopic observation: FCCP as uncoupler control. The procedure:
We used the MitoTracker Deep Red FM fluorescent probe (Invitrogen) to assess the mitochondrial membrane potential in Toxoplasma tachyzoites. […] After another 24 h of culture at 37 °C and 5% CO2, Mitotracker labeling was performed as described in the protocol provided by the manufacturer, with a 45 min incubation at 37 °C and 5% CO2 of the reconstituted dye diluted to 1/1000 in culture medium. Parasites were then fixed for 30 min in 4% (w/v) PFA (diluted in PBS), washed twice in PBS, scraped, syringed (with a 25 G needle), filtered on a 40 μm membrane, and resuspended in 1 mL of PBS. Parasites were then analyzed with an Aurora spectral cytometer (Cytek), using a 633 nm excitation laser and a 665 nm detector. 10,000 events were recorded. Mean fluorescence was plotted against vehicle-treated culture parasites using Prism 8.0 (GraphPad Software), and statistical significance was determined using one-way ANOVA with Tukey’s multiple-comparison test. The experiment was performed for three biologically independent replicates. For the membrane depolarization control, parasites were treated with 10 μM FCCP for 30 min prior to and during incubation with the Mitotracker dye.
Intracellular parasites and the host cell monolayer were then fixed 24 h later with 4% (w/v) PFA (diluted in PBS) for 20 min, and after fixation, cells were permeabilized with 0.3% (v/v) Triton X-100 (diluted in PBS) for 10 min. Costaining with the anti-F1β ATPase mitochondrial marker was performed as described below.

The next experiment concerns Human BJ Fibroblast. The experiment is described as follows: Drug sensitivity assay, dose–response curves, human BJ fibroblasts. It counts as cell-based. The following applies: mean, n ≥ 3. The source says:
(§1) Human fibroblasts, T. brucei, T. gambiense, P. falciparum, L. mexicana, and B. divergens were cultivated as described previously, and dose–response curves were obtained by their cultivation on 96 well plates in a 2-fold seriel dilution of the appropriate drug.

For experiment [2], the system named is Trypanosoma brucei bloodstream forms. Description: Drug sensitivity assay, dose–response curves, T. brucei. It is filed as cell-based. The following applies: for EC50: bloodstream forms, mean, n ≥ 3; for T. brucei selectivity: relative to human BJ fibroblast EC50.
From the text: as §1

Experiment [3] relates to Trypanosoma gambiense bloodstream forms. Description: Drug sensitivity assay, dose–response curves, T. gambiense. It is filed as cell-based.
From the text: as §1

Experiment [4] has as its system Leishmania mexicana axenic amastigotes. Description: Drug sensitivity assay, dose–response curves, L. mexicana. It counts as cell-based.
From the text: as §1

Experiment [5] deals with Toxoplasma gondii tachyzoites (RH strain), intracellular stages. Description: T. gondii lytic cycle plaque assay in HFF monolayers. It counts as cell-based. Here is the method: T. gondii tachyzoites of the RH strain were routinely maintained through passages in a human foreskin fibroblasts (HFFs) monolayer (ATCC CRL-1634). HFFs and parasites were cultured in standard Dulbecco’s Modified Eagle Medium (DMEM), supplemented with 5% decomplemented fetal bovine serum (FBS), 2 mM L-glutamine, 100 U/mL penicillin, and 100 μg/mL streptomycin (Gibco) at 37 °C and with 5% CO2 in an incubator with a controlled atmosphere.
The lytic cycle of T. gondii tachyzoites was assessed by a plaque assay as described previously. Briefly, tachyzoites were allowed to invade monolayers of HFFs for 3 h before addition of the compounds or the DMSO vehicle and were subsequently cultivated for 7 days at 37 °C and 5% CO2. They were then fixed with 4% (w/v) paraformaldehyde (PFA, diluted in phosphate-buffered saline (PBS)) for 20 min and stained with a 0.1% crystal violet solution (V5265, Sigma-Aldrich), washed, and air-dried before imaging under an Olympus MVX10 microscope.
Figure S1. EC50 determination of selected compounds in Toxoplasma.
B) EC50 curves based on plaque
area measured from three independent plaque assays. Data are mean ± standard deviation. C)
vacuoles were counted for each con dition. Values represented are mean ± standard deviation of […]

The test system of experiment [6] is Babesia divergens intracellular stages. The experiment is described as follows: Drug sensitivity assay, dose–response curves, B. divergens. It is filed as cell-based.
From the text: as §1

The test system of experiment [7] is Plasmodium falciparum intracellular stages. Description: Drug sensitivity assay, dose–response curves, P. falciparum. It is filed as cell-based.
From the text: as §1

The subject of experiment [8] is T. brucei 427 bloodstream form mitochondria. Description: Mitochondrial membrane potential in T. brucei (TMRE, flow cytometry). It is filed as cell-based, Trypanosoma brucei. As to conditions: 24 h at 3× EC50. The procedure: The mitochondrial membrane potential of T. brucei 427 bloodstream form was assessed using the fluorescent probe TMRE (Thermo Fisher Scientific) as described in ref . […] Untreated cells and cells preincubated with a 50 μM CCCP uncoupler for 30 min were used as negative and positive controls, respectively. Approximately 1 × 10^6 cells were incubated with 60 nM TMRE for 30 min, washed 1× with sterile PBS, and 5,000 events were measured on a Guava EasyCyte 8HT flow cytometer (Luminex) using a 488 nm excitation laser and a 583/26 nm detector. Median fluorescence was plotted against an untreated culture using Prism 8.0 (GraphPad Software), and statistical significance was determined using RM one-way ANOVA with Geisser–Greenhouse correction. The experiment was performed in three biologically independent replicates.

The next experiment deals with T. gondii mitochondrion. Description: Toxoplasma immunofluorescence assay of organelle morphology. It counts as cell-based, Toxoplasma gondii. The following applies: 24 h at 3× EC50; DFX at 60 nM. Here is the method:
For IFAs to assess organelle morphology, coverslips seeded with HFFs were infected with T. gondii tachyzoites, and 3 h later, compounds were added (at 3 times their respective EC50). Intracellular parasites and host cell monolayers were then fixed 24 h later with 4% (w/v) PFA (diluted in PBS) for 20 min. After fixation, cells were permeabilized with 0.3% (v/v) Triton X-100 (diluted in PBS) for 10 min. Coverslips were blocked with 2% (w/v) bovine serum albumin (BSA) for 1 h prior to immunolabeling with a primary antibody for 1 h. After 3 washes in PBS, a corresponding secondary antibody was incubated for 1 h. Coverslips were then incubated with 1 μg/mL of Hoechst stain for 5 min before 3 washes in PBS and, finally, mounted using Immu-Mount (Thermo Fisher) onto microscope slides. Primary antibodies used were prepared in 2% BSA (diluted in PBS) and used at the following concentrations: the apicoplast was stained using rabbit anti-PDH-E2 (1:500), the mitochondrion was stained using mouse anti-F1β ATPase (1:1000, gift of P. Bradley). Anti-mouse and anti-rabbit secondary antibodies were all from Thermo Fisher and were diluted at 1:4000. Image acquisition was performed with a Zeiss Axio Observer inverted microscope equipped with a Zeiss Axiocam 712 camera and 63×/1.4 or 100×/1.4 Oil Plan Achromat objectives. Images were processed with Zen Blue v3.6 software (Zeiss). Z-stack acquisitions were processed by a maximum-intensity orthogonal projection. Adjustments of brightness and contrast were applied uniformly, and paired images were acquired with the same exposure time. Quantifications of mitochondrial morphology were performed by microscopic observation of a series of at least 100 parasites, and data from three independent biological replicates was acquired and plotted using Prism 8.0 (GraphPad Software). Statistical significance was determined using one-way ANOVA with Tukey’s multiple-comparison test.

Where [9] appears, read: intracellular stages, mean, n ≥ 3.

For `N#CC(C#N)=NNc1ccc(OC(F)(F)F)cc1` [FCCP, carbonyl cyanide p-trifluoromethoxyphenylhydrazone, reference compound], in experiment [1], the “Mitotracker staining of T. gondii, microscopic observation” value is “diffuse Mitotracker signal”.

The term EC50 denotes the concentration at which the effect is half-maximal. The low end stands for higher potency in that assay, the high end for lower potency in that assay. `CC(=O)N(O)CCCCCNC(=O)CCC(=O)N(O)CCCCCNC(=O)CCC(=O)N(O)CCCCCNCCCCCCCCCC[P+](c1ccccc1)(c1ccccc1)c1ccccc1` [compound 1, triphenylphosphine-C10-DFO]: the concentration for a half-maximal effect (EC50) in the experiment on Human BJ Fibroblast was greater than 25000 nM; in [2], 882 nM.

For the compound `CC(=O)N(O)CCCCCNC(=O)CCC(=O)N(O)CCCCCNC(=O)CCC(=O)N(O)CCCCCN(CCCCCCCCCC[P+](c1ccccc1)(c1ccccc1)c1ccccc1)CCCCCCCCCC[P+](c1ccccc1)(c1ccccc1)c1ccccc1.[Cl-].[Cl-]` [compound 2, (triphenylphosphine-C10)2-DFO], the results for the EC50 (with Human BJ Fibroblast; in experiment [2]) were 8910 nM and 56.9 nM, respectively. Moreover, in [2], the T. brucei selectivity is on record as 156.

`CC(=O)N(O)CCCCCNC(=O)CCC(=O)N(O)CCCCCNC(=O)CCC(=O)N(O)CCCCCN(CCCCCCCCCCCC[P+](c1ccccc1)(c1ccccc1)c1ccccc1)CCCCCCCCCCCC[P+](c1ccccc1)(c1ccccc1)c1ccccc1.Cl.[Cl-].[Cl-]` [compound 6, (triphenylphosphine-C12)2-DFO]: the EC50 in the experiment on Human BJ Fibroblast amounted to 3630 nM. In [2], this compound gave a concentration giving a half-maximal response (EC50) of 73.1 nM and a T. brucei selectivity of 50.

Consider `CC(=O)N(O)CCCCCNC(=O)CCC(=O)N(O)CCCCCNC(=O)CCC(=O)N(O)CCCCCN(CCCCCCCCCC[P+](Cc1ccccc1)(Cc1ccccc1)Cc1ccccc1)CCCCCCCCCC[P+](Cc1ccccc1)(Cc1ccccc1)Cc1ccccc1.Cl.[Cl-].[Cl-]` [compound 7, (tribenzylphosphine-C10)2-DFO], for which the EC50 in the experiment on Human BJ Fibroblast amounted to 2550 nM. In experiment [2], this compound yielded an EC50 of 186 nM and a T. brucei selectivity of 14.

The compound `CCCCCCCC[P+](CCCCCCCC)(CCCCCCCC)CCCCCCCCCCN(CCCCCCCCCC[P+](CCCCCCCC)(CCCCCCCC)CCCCCCCC)CCCCCN(O)C(=O)CCC(=O)NCCCCCN(O)C(=O)CCC(=O)NCCCCCN(O)C(C)=O.Cl.[Cl-].[Cl-]` [compound 8, (trioctylphosphine-C10)2-DFO] yielded a 50% effective concentration (EC50) in the experiment with Human BJ Fibroblast of 2920 nM. In [2], this compound had an EC50 of 134 nM and a T. brucei selectivity of 22.

On to `Oc1ccccc1-c1nc(-c2ccccc2O)n(CCCCCCCCCC[P+](c2ccccc2)(c2ccccc2)c2ccccc2)n1.[Br-]` [compound 11, triphenylphosphineBr-C10-norbenzoic-DFX], for which the EC50 in the experiment with Human BJ Fibroblast was found to be 2110 nM; in experiment [2], 5.5 nM; in [3] (bloodstream forms, mean, n ≥ 3), 7.5 nM; in experiment [4] (axenic amastigotes, mean, n ≥ 3), 132 nM; in experiment [5] (intracellular stages, plaque assay in HFFs, 7 days, n ≥ 3), 5 nM; in experiment [6] (setting [9]), 17.2 nM. In addition, in experiment [7] (setting [9]), a half-maximal response (EC50) required 238 nM. In [2], this compound had a T. brucei selectivity greater than 300. This compound also yielded a T. gambiense selectivity in [3] (relative to fibroblasts) of 282. In addition, in [4] (relative to fibroblasts), the L. mexicana selectivity came out at 16. The compound further showed a T. gondii selectivity in [5] (relative to fibroblasts) of 422. This compound also gave a B. divergens selectivity in [6] (relative to fibroblasts) of 122. Besides, the P. falciparum selectivity in [7] (relative to fibroblasts) amounted to 9. Moreover, the “mitochondrial membrane potential of T. brucei (relative to untreated)” value in experiment [8] is listed as “less than 50%”. Also, in experiment [1], the “Mitotracker staining of T. gondii, microscopic observation” value is recorded as “strong decrease in Mitotracker staining”. In addition, the “morphology of the T. gondii mitochondrion” value in the experiment with T. gondii mitochondrion is “altered the morphology of the organelle”.

Consider `O=C(NCCCCCCCC[P+](c1ccccc1)(c1ccccc1)c1ccccc1)c1ccc(-n2nc(-c3ccccc3O)nc2-c2ccccc2O)cc1.[Cl-]` [compound 12, triphenylphosphine-C8-DFX], for which a half-maximal effect in the experiment with Human BJ Fibroblast (EC50) was put at 1970 nM. In experiment [2], this compound yielded a concentration giving a half-maximal response (EC50) of 35.8 nM and a T. brucei selectivity of 55.

In the experiment with Human BJ Fibroblast, `O=C(NCCCCCC[P+](c1ccccc1)(c1ccccc1)c1ccccc1)c1ccc(-n2nc(-c3ccccc3O)nc2-c2ccccc2O)cc1.[Cl-]` [compound 13, triphenylphosphine-C6-DFX] registered an EC50 of 15000 nM. In [2], this compound registered an EC50 of 49.8 nM and a T. brucei selectivity of 302.

On to `CC(=O)N(O)CCCCCNC(=O)CCC(=O)N(O)CCCCCNC(=O)CCC(=O)N(O)CCCCCN` [compound 16, deferoxamine, reference compound], for which the concentration for a half-maximal effect (EC50) (with Human BJ Fibroblast; in [2] (Trypanosoma brucei)) was greater than 25000 nM each time.

With `O=C(O)c1ccc(-n2nc(-c3ccccc3O)nc2-c2ccccc2O)cc1` [compound 17, deferasirox, reference compound], the figures for the EC50 (in the experiment on Human BJ Fibroblast; in [2] (Trypanosoma brucei)) were greater than 25000 nM and 8790 nM, respectively. For the same compound, the “T. gondii mitochondrial membrane potential, flow cytometric quantification of Mitotracker labeling” value in [1] (DFX at 60 nM) was “no specific impact”. For the same compound, the “morphology of the T. gondii mitochondrion” value with T. gondii mitochondrion is listed as “largely preserved”.

Take “(dimethylphenylphosphine-C10)2-DFO [compound 9]”: the half-maximal effective concentration (EC50) with Human BJ Fibroblast is greater than 25000 nM; in [2], 1150 nM. The “decrease in antiparasitic activity compared with compound 2” value in [2] (T. brucei) was roughly 20 fold.

In the experiment with Human BJ Fibroblast, (tributylamine-C10)2-DFO [compound 3] gave a 50% effective concentration (EC50) of 8140 nM. In experiment [2], this compound had an EC50 of 73.6 nM and a T. brucei selectivity of 111.

Take “(tributylphosphine-C10)2-DFO [compound 4]”: in the experiment with Human BJ Fibroblast, the concentration for a half-maximal effect (EC50) amounted to 2840 nM. Further, in experiment [2], the EC50 was determined as 281 nM and the T. brucei selectivity stood at 10.

As to “(tricylohexylphosphine-C10)2-DFO [compound 5]”, the EC50 with Human BJ Fibroblast was 3080 nM; in experiment [2], 52 nM. The compound further gave a T. brucei selectivity in experiment [2] of 59.

Take “(triphenylphosphine-C10-triazole)2-DFO [compound 10]”: in the experiment on Human BJ Fibroblast, it took 4130 nM to reach a half-maximal effect (EC50). In experiment [2], this compound yielded a 50% effective concentration (EC50) of 134 nM and a T. brucei selectivity of 31.
